This note sets out measurements from patent US20240009272A1, “METHODS, SYSTEMS, AND COMPOSITIONS FOR LEGUME-BASED PRODUCTION OF THERAPEUTIC PROTEINS AND THERAPEUTIC MEDICAL MATERIALS” (Arizona Board of Regents on Behalf of The University of …, priority 2017, published 2024).

The assay can be described thus: Stability of rhEGF in soymilk, read out by bioactivity on Hela cell EGFR. It is filed as physicochemical. Conditions: in soymilk over 24 hours; Hela cell EGFR abundance. On the procedure:
Hela cells (obtained from American Tissue Culture Collection) were cultured in Minimum Essential Media (MEM) complemented with 10% Fetal Bovine Serum (FBS), 100 units/ml penicillin, and 100 μg/ml streptomycin. For the western blotting assay, cells grown in a 6-well plate were kept in serum-free MEM media for 24 hours. Cells were then either kept in a serum-free medium (control) or stimulated with soy milk alone, soy EGF, or commercial recombinant human EGF for different time periods as indicated. Cells were lysed by directly adding 1×SDS sample buffer (50 mM Tris-HCl, pH 6.8, 10% glycerol, 2% SDS, and 5% β-ME) to the cells after washing 3 times with 1×PBS. EGF bio-activity was determined via EGFR phosphorylation and downstream AKT phosphorylation. Total EGFR was also measured since EGFR is known to undergo internalization when stimulated with EGF. Antibodies used in western blot are anti-p-EGFR (Tyr1068) (#2234, Cell Signaling Technology), anti-total EGFR (#06-847, Millipore), anti-p-AKT (#4060, Cell Signaling Technology) and anti-Lamin B1 (#13435, Cell Signaling Technology). […] EGFR was labeled using an anti-EGFR antibody (#4267, Cell Signaling Technology) and detected with Alexa Fluor 594 Goat anti-rabbit IgG (#A11012, Life Technologies). […]

Consider “rhEGF: commercial recombinant human EGF (Gibco, Life Technologies), used as positive control”, for which the “bioactivity of rhEGF kept in soymilk versus control rhEGF” value is given as “same bioactivity as control recombinant rhEGF”.
